ChEMBL document CHEMBL3627674, “Discovery of wrightiadione as a novel template for the TrkA kinase inhibitors” (Bioorg Med Chem Lett, 2015)

Legend:
[1] = target: Hepatocyte growth factor receptor (Homo sapiens) (UniProt P08581); assay: Inhibition of MET (unknown origin) assessed as remaining activity at 10 uM by high-throughput assay relative to control
[2] = target: Angiopoietin-1 receptor (Homo sapiens) (UniProt Q02763); assay: Inhibition of TIE2 (unknown origin) assessed as remaining activity at 10 uM by high-throughput assay relative to control
[3] = target: cAMP-dependent protein kinase catalytic subunit alpha (Homo sapiens) (UniProt P17612); assay: Inhibition of PKAC-alpha (unknown origin) assessed as remaining activity at 10 uM by high-throughput assay relative to control
[4] = target: Mitogen-activated protein kinase 14 (Homo sapiens) (UniProt Q16539); assay: Inhibition of p38-alpha (unknown origin) assessed as remaining activity at 10 uM by high-throughput assay relative to control
[5] = target: Protein kinase C epsilon type (Homo sapiens) (UniProt Q02156); assay: Inhibition of PRKCE (unknown origin) assessed as remaining activity at 10 uM by high-throughput assay relative to control
[6] = target: NUAK family SNF1-like kinase 2 (Homo sapiens) (UniProt Q9H093); assay: Inhibition of SNARK (unknown origin) assessed as remaining activity at 10 uM by high-throughput assay relative to control
[7] = target: Serine/threonine-protein kinase pim-3 (Homo sapiens) (UniProt Q86V86); assay: Inhibition of PIM3 (unknown origin) assessed as remaining activity at 10 uM by high-throughput assay relative to control
[8] = target: Dual specificity mitogen-activated protein kinase kinase 2 (Homo sapiens) (UniProt P36507); assay: Inhibition of MEK2 (unknown origin) assessed as remaining activity at 10 uM by high-throughput assay relative to control
[9] = target: Rho-associated protein kinase 2 (Homo sapiens) (UniProt O75116); assay: Inhibition of ROCK2 (unknown origin) assessed as remaining activity at 10 uM by high-throughput assay relative to control
[10] = target: Platelet-derived growth factor receptor alpha (Homo sapiens) (UniProt P16234); assay: Inhibition of PDGFRA (unknown origin) assessed as remaining activity at 10 uM by high-throughput assay relative to control
[11] = target: Tyrosine-protein kinase receptor UFO (Homo sapiens) (UniProt P30530); assay: Inhibition of AXL (unknown origin) assessed as remaining activity at 10 uM by high-throughput assay relative to control
[12] = target: Insulin receptor (Homo sapiens) (UniProt P06213); assay: Inhibition of INSR (unknown origin) assessed as remaining activity at 10 uM by high-throughput assay relative to control
[13] = system: Serine/threonine-protein kinase B-raf (Homo sapiens), P15056 [V600E]; assay: Inhibition of BRAF V600E mutant (unknown origin) assessed as remaining activity at 10 uM by high-throughput assay relative to control
[14] = target: Serine/threonine-protein kinase PLK4 (Homo sapiens) (UniProt O00444); assay: Inhibition of PLK4 (unknown origin) assessed as remaining activity at 10 uM by high-throughput assay relative to control
[15] = target: Mitogen-activated protein kinase 9 (Homo sapiens) (UniProt P45984); assay: Inhibition of JNK2 (unknown origin) assessed as remaining activity at 10 uM by high-throughput assay relative to control
[16] = target: Activin receptor type-1B (Homo sapiens) (UniProt P36896); assay: Inhibition of ACVR1B (unknown origin) assessed as remaining activity at 10 uM by high-throughput assay relative to control
[17] = target: Tyrosine-protein kinase JAK3 (Homo sapiens) (UniProt P52333); assay: Inhibition of JAK3 JH1 catalytic domain (unknown origin) assessed as remaining activity at 10 uM by high-throughput assay relative to control
[18] = target: Fibroblast growth factor receptor 3 (Homo sapiens) (UniProt P22607); assay: Inhibition of FGFR3 (unknown origin) assessed as remaining activity at 10 uM by high-throughput assay relative to control
[19] = target: Receptor-type tyrosine-protein kinase FLT3 (Homo sapiens) (UniProt P36888); assay: Inhibition of FLT3 (unknown origin) assessed as remaining activity at 10 uM by high-throughput assay relative to control
[20] = target: Cyclin-dependent kinase 9 (Homo sapiens) (UniProt P50750); assay: Inhibition of CDK9 (unknown origin) assessed as remaining activity at 10 uM by high-throughput assay relative to control
[21] = target: Testis-specific serine/threonine-protein kinase 1 (Homo sapiens) (UniProt Q9BXA7); assay: Inhibition of TSSK1B (unknown origin) assessed as remaining activity at 10 uM by high-throughput assay relative to control
[22] = target: Mitogen-activated protein kinase 10 (Homo sapiens) (UniProt P53779); assay: Inhibition of JNK3 (unknown origin) assessed as remaining activity at 10 uM by high-throughput assay relative to control
[23] = target: Tyrosine-protein kinase ABL1 (Homo sapiens) (UniProt P00519); assay: Inhibition of ABL1 phosphorylation (unknown origin) assessed as remaining activity at 10 uM by high-throughput assay relative to control
[24] = target: ALK tyrosine kinase receptor (Homo sapiens) (UniProt Q9UM73); assay: Inhibition of ALK (unknown origin) assessed as remaining activity at 10 uM by high-throughput assay relative to control
[25] = target: Tyrosine-protein kinase ZAP-70 (Homo sapiens) (UniProt P43403); assay: Inhibition of ZAP70 (unknown origin) assessed as remaining activity at 10 uM by high-throughput assay relative to control
[26] = target: High affinity nerve growth factor receptor (Homo sapiens, UniProt P04629); assay: Inhibition of TrkA (unknown origin) by radiometric analysis in presence of [gamma-33P]-ATP
[27] = target: Epidermal growth factor receptor (Homo sapiens) (UniProt P00533); assay: Inhibition of EGFR (unknown origin) assessed as remaining activity at 10 uM by high-throughput assay relative to control
[28] = target: 3-phosphoinositide-dependent protein kinase 1 (Homo sapiens) (UniProt O15530); assay: Inhibition of PDPK1 (unknown origin) assessed as remaining activity at 10 uM by high-throughput assay relative to control
[29] = target: Tyrosine-protein kinase BTK (Homo sapiens) (UniProt Q06187); assay: Inhibition of BTK (unknown origin) assessed as remaining activity at 10 uM by high-throughput assay relative to control
[30] = target: Serine/threonine-protein kinase PLK1 (Homo sapiens) (UniProt P53350); assay: Inhibition of PLK1 (unknown origin) assessed as remaining activity at 10 uM by high-throughput assay relative to control
[31] = target: Serine/threonine-protein kinase PLK3 (Homo sapiens, UniProt Q9H4B4); assay: Inhibition of PLK3 (unknown origin) assessed as remaining activity at 10 uM by high-throughput assay relative to control
[32] = target: RAF proto-oncogene serine/threonine-protein kinase (Homo sapiens) (UniProt P04049); assay: Inhibition of RAF1 (unknown origin) assessed as remaining activity at 10 uM by high-throughput assay relative to control

Tyrosine-protein kinase JAK3 (Homo sapiens), sequence (P52333 whole entry, the tested form may be a part): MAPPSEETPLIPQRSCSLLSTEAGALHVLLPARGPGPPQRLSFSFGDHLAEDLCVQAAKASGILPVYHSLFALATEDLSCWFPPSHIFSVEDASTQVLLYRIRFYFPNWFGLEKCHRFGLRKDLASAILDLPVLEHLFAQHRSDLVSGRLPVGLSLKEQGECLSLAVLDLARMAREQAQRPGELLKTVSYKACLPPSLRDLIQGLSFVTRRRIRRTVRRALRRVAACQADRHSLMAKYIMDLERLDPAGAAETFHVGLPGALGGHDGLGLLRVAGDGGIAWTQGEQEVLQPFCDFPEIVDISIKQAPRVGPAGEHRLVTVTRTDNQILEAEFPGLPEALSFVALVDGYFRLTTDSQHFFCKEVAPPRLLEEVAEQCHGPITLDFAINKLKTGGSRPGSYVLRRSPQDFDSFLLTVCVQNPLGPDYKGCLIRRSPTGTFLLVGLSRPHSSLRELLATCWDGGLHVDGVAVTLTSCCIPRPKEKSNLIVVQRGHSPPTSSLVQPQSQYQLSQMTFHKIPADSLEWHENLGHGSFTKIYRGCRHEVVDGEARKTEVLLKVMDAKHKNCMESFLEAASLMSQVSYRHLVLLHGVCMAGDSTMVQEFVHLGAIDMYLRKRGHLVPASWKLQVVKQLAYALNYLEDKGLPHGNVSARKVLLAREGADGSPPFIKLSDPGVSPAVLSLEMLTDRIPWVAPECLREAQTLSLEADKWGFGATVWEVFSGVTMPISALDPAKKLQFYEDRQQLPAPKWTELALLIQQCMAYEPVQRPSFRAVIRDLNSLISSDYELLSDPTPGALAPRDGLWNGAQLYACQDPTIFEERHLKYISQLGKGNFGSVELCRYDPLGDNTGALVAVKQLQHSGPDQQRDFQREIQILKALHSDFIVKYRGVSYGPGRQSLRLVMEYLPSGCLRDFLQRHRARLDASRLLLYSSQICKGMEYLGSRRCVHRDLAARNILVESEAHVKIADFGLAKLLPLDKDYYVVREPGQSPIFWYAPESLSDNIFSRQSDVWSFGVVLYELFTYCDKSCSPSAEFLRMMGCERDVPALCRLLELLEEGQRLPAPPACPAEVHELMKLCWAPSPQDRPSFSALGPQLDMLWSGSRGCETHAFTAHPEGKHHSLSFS
Tyrosine-protein kinase ZAP-70 (Homo sapiens), sequence (P43403 whole entry): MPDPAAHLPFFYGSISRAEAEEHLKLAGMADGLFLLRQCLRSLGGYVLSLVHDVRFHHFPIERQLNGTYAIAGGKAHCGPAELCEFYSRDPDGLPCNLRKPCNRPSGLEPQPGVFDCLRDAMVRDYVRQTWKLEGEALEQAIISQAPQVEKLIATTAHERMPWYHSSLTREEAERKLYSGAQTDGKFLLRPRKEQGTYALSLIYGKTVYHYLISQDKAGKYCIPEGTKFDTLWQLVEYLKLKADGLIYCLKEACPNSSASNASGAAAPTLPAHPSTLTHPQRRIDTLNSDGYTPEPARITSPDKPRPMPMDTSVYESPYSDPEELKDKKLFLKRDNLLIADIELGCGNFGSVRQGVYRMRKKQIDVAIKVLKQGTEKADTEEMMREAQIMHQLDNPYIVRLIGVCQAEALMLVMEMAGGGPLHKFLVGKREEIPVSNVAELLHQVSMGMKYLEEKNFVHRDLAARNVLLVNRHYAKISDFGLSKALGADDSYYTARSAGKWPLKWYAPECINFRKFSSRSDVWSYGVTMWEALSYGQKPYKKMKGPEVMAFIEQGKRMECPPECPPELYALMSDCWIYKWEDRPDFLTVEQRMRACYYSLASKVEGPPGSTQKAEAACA
Insulin receptor (Homo sapiens), sequence (P06213 28-758 limits assumed): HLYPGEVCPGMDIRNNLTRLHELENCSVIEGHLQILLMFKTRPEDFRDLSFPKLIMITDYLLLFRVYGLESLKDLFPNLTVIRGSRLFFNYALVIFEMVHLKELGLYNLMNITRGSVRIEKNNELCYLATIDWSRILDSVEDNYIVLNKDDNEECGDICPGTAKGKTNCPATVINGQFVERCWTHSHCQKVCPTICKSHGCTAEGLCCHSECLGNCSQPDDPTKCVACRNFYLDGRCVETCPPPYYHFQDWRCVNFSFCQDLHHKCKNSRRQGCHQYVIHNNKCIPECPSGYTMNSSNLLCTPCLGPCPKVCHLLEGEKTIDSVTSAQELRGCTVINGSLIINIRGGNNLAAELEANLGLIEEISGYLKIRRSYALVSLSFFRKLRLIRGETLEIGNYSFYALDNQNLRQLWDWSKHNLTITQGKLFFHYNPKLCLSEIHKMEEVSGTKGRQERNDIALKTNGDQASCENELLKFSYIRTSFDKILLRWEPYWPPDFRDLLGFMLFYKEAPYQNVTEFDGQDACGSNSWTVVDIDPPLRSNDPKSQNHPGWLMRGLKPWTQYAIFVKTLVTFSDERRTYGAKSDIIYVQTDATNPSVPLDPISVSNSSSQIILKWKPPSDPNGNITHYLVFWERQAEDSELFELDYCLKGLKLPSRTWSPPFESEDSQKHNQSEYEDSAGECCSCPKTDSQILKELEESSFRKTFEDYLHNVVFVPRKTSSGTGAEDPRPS
Insulin receptor (Homo sapiens), sequence (P06213 763-1382 limits assumed): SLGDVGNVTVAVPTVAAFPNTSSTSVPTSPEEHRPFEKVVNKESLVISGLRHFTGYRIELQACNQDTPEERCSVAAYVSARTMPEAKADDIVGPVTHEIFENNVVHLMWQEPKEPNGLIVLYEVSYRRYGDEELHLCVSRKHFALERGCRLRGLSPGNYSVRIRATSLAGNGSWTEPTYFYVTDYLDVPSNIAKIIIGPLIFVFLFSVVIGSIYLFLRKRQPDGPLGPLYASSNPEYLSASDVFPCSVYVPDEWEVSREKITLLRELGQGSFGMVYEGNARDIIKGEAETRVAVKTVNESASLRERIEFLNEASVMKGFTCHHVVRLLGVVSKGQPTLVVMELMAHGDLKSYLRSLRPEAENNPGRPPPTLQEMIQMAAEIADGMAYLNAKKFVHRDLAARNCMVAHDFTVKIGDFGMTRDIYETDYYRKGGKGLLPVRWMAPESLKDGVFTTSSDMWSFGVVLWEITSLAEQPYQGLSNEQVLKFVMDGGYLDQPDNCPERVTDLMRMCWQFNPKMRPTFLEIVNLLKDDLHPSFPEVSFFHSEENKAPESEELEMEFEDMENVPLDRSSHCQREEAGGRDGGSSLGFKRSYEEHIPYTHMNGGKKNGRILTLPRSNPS
Dual specificity mitogen-activated protein kinase kinase 2 (Homo sapiens), sequence (P36507 whole entry): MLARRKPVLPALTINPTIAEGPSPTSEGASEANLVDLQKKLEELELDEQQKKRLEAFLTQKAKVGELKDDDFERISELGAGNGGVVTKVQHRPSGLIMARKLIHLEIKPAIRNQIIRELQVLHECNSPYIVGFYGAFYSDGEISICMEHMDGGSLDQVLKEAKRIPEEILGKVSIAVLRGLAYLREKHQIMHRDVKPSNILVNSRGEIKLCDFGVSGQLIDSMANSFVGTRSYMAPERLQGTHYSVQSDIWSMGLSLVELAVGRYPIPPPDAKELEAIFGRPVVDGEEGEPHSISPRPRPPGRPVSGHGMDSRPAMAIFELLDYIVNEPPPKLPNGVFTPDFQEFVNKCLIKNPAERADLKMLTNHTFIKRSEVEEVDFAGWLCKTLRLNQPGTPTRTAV
Tyrosine-protein kinase BTK (Homo sapiens), sequence (Q06187 whole entry): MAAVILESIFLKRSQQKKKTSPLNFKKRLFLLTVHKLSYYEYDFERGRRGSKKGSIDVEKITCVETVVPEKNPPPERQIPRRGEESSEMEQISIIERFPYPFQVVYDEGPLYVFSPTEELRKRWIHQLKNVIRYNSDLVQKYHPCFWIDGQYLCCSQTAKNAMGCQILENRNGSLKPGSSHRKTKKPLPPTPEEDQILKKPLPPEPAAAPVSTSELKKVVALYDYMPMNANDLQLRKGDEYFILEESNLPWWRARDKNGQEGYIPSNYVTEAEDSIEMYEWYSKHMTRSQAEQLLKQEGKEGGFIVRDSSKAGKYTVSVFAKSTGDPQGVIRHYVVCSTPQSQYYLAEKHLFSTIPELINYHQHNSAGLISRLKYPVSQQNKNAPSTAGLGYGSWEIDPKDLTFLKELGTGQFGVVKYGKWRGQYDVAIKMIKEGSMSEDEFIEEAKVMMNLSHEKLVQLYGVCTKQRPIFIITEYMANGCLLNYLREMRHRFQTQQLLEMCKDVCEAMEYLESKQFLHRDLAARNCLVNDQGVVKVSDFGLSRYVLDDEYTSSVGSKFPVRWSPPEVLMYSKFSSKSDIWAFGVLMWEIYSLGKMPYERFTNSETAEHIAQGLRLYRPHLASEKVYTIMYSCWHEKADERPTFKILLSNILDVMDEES
Mitogen-activated protein kinase 14 (Homo sapiens), sequence (Q16539 whole entry): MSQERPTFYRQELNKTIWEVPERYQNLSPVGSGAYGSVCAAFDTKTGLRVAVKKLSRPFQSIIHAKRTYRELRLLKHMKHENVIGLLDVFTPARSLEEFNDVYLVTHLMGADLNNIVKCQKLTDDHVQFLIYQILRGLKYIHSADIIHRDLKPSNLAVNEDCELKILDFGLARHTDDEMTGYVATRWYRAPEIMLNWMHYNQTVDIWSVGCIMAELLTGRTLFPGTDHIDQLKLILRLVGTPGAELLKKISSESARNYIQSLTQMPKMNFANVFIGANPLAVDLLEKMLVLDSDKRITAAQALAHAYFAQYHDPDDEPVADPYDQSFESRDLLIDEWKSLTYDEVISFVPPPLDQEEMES

- Activity [1]: 64%
- Activity [2]: 74%
- Activity [3]: 92%
- Activity [4]: 95%
- Activity [5]: 96%
- Activity [6]: 70%
- Activity [7]: 94%
- Activity [8]: 71%
- Activity [9]: 79%
- Activity [10]: 66%
- Activity [11]: 26%
- Activity [12]: 72%
- Activity [13]: 72%
- Activity [14]: 80%
- Activity [15]: 49%
- Activity [16]: 82%
- Activity [17]: 61%
- Activity [18]: 54%
- Activity [19]: 51%
- Activity [20]: 71%
- Activity [21]: 71%
- Activity [22]: 33%
- Activity [23]: 98%
- Activity [24]: 48%
- Activity [25]: 77%
- IC50 [26]: 55.8 µM
- Activity [27]: 93%
- Activity [28]: 99%
- Activity [29]: 76%
- Activity [30]: 38%
- Activity [31]: 8.3%
- Activity [32]: 92%
Compound: O=C1c2ccccc2-c2c1oc1ccccc1c2=O
